Data: ChEMBL document CHEMBL1201862, “PubChem BioAssay data set” (2004)
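1) Cells in 96-well plates. 2) Compound, 48 h, 5 concentrations. 3) Linear interpolation between surrounding doses. 4) Unreached endpoint = highest concentration. At the GI50, growth is halved.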 Calls of active or inactive are those of the source. Cut-off read from the data, not from the text of the source: active = GI50 up to about 1.1 µM and inactive = higher.

Key:
Test in all cases: NCI-60 cell line screen, 48 h
DU-145 = system: DU-145
PC-3 = system: PC-3
SK-MEL-28 = system: SK-MEL-28
SR = system: SR
NCI-H460 = system: NCI-H460
MDA-MB-231 = system: MDA-MB-231
MOLT-4 = system: MOLT-4
ACHN = system: ACHN
UO-31 = system: UO-31
OVCAR-8 = system: OVCAR-8
A498 = system: A498
SK-MEL-2 = system: SK-MEL-2
SNB-19 = system: SNB-19
HOP-92 = system: HOP-92
COLO 205 = system: COLO 205
Hs-578T = system: Hs-578T
SF-539 = system: SF-539
HCC 2998 = system: HCC 2998
UACC-62 = system: UACC-62
IGROV-1 = system: IGROV-1
M14 = system: M14
EKVX = system: EKVX
SF-268 = system: SF-268
RPMI-8226 = system: RPMI-8226
NCI/ADR-RES = system: NCI/ADR-RES
SF-295 = system: SF-295
NCI-H226 = system: NCI-H226
SN12C = system: SN12C
HL-60 = system: HL-60
OVCAR-3 = system: OVCAR-3
Malme-3M = system: Malme-3M
SNB-75 = system: SNB-75
T47D = system: T47D
SK-MEL-5 = system: SK-MEL-5
MCF7 = system: MCF7
K562 = system: K562
OVCAR-5 = system: OVCAR-5
CCRF-CEM = system: CCRF-CEM
MDA-N = system: MDA-N
KM12 = system: KM12
RXF 393 = system: RXF 393
UACC-257 = system: UACC-257
A549 = system: A549
BT-549 = system: BT-549
CAKI-1 = system: CAKI-1
SW-620 = system: SW-620
NCI-H522 = system: NCI-H522
HCT-15 = system: HCT-15
TK-10 = system: TK-10
OVCAR-4 = system: OVCAR-4
MDA-MB-435 = system: MDA-MB-435
U-251 = system: U-251
786-0 = system: 786-0
LOX IMVI = system: LOX IMVI
HCT-116 = system: HCT-116
NCI-H23 = system: NCI-H23
HOP-62 = system: HOP-62
HT-29 = system: HT-29
SK-OV-3 = system: SK-OV-3

Question: Which GI50 (DU-145) does the source give for `C=C(C)[C@@H]1CCC2=C[C@H](CC(C)=CC3=CC(C)=C(O3)[C@@H]1OC)OC2=O` here?
Answer: > 100 µM (inactive)

Question: What about the GI50 (PC-3) of the same compound?
Answer: 83.8 µM (inactive)

Question: What about the GI50 (SK-MEL-28) of the same compound?
Answer: > 100 µM (inactive)

Question: And the GI50 (SR)?
Answer: > 100 µM (inactive)

Question: And the GI50 (NCI-H460)?
Answer: > 100 µM (inactive)

Question: And the GI50 (MDA-MB-231)?
Answer: 29.5 µM (inactive)

Question: What about the GI50 (MOLT-4) of the same compound?
Answer: > 100 µM (inactive)

Question: And the GI50 (ACHN)?
Answer: 76.6 µM (inactive)

Question: And the GI50 (UO-31)?
Answer: > 100 µM (inactive)

Question: And the GI50 (OVCAR-8)?
Answer: 40.7 µM (inactive)

Question: What about the GI50 (A498) of the same compound?
Answer: 53.6 µM (inactive)

Question: And the GI50 (SK-MEL-2)?
Answer: 20.9 µM (inactive)

Question: And the GI50 (SNB-19)?
Answer: 37.2 µM (inactive)

Question: And the GI50 (HOP-92)?
Answer: 33.3 µM (inactive)

Question: What about the GI50 (COLO 205) of the same compound?
Answer: > 100 µM (inactive)

Question: What about the GI50 (Hs-578T) of the same compound?
Answer: 33.6 µM (inactive)

Question: And the GI50 (SF-539)?
Answer: 77.3 µM (inactive)

Question: What about the GI50 (HCC 2998) of the same compound?
Answer: > 100 µM (inactive)

Question: What about the GI50 (UACC-62) of the same compound?
Answer: 29.7 µM (inactive)

Question: And the GI50 (IGROV-1)?
Answer: > 100 µM (inactive)

Question: And the GI50 (M14)?
Answer: 41.5 µM (inactive)

Question: What about the GI50 (EKVX) of the same compound?
Answer: 59.2 µM (inactive)

Question: And the GI50 (SF-268)?
Answer: 33.7 µM (inactive)

Question: And the GI50 (RPMI-8226)?
Answer: > 100 µM (inactive)

Question: And the GI50 (NCI/ADR-RES)?
Answer: 90.4 µM (inactive)

Question: What about the GI50 (SF-295) of the same compound?
Answer: 21 µM (inactive)

Question: And the GI50 (NCI-H226)?
Answer: 73.8 µM (inactive)

Question: And the GI50 (SN12C)?
Answer: > 100 µM (inactive)

Question: What about the GI50 (HL-60) of the same compound?
Answer: > 100 µM (inactive)

Question: What about the GI50 (OVCAR-3) of the same compound?
Answer: > 100 µM (inactive)

Question: And the GI50 (Malme-3M)?
Answer: > 100 µM (inactive)

Question: What about the GI50 (SNB-75) of the same compound?
Answer: 63.5 µM (inactive)

Question: And the GI50 (T47D)?
Answer: > 100 µM (inactive)

Question: What about the GI50 (SK-MEL-5) of the same compound?
Answer: > 100 µM (inactive)

Question: What about the GI50 (MCF7) of the same compound?
Answer: 38.8 µM (inactive)

Question: What about the GI50 (K562) of the same compound?
Answer: > 100 µM (inactive)

Question: What about the GI50 (OVCAR-5) of the same compound?
Answer: > 100 µM (inactive)

Question: And the GI50 (CCRF-CEM)?
Answer: > 100 µM (inactive)

Question: What about the GI50 (MDA-N) of the same compound?
Answer: > 100 µM (inactive)

Question: And the GI50 (KM12)?
Answer: > 100 µM (inactive)

Question: And the GI50 (RXF 393)?
Answer: 23.8 µM (inactive)

Question: And the GI50 (UACC-257)?
Answer: > 100 µM (inactive)

Question: What about the GI50 (A549) of the same compound?
Answer: > 100 µM (inactive)

Question: What about the GI50 (BT-549) of the same compound?
Answer: 51.6 µM (inactive)

Question: And the GI50 (CAKI-1)?
Answer: > 100 µM (inactive)

Question: What about the GI50 (SW-620) of the same compound?
Answer: > 100 µM (inactive)

Question: And the GI50 (NCI-H522)?
Answer: > 100 µM (inactive)

Question: What about the GI50 (HCT-15) of the same compound?
Answer: > 100 µM

Question: What about the GI50 (TK-10) of the same compound?
Answer: 85.3 µM (inactive)

Question: And the GI50 (OVCAR-4)?
Answer: > 100 µM (inactive)

Question: And the GI50 (MDA-MB-435)?
Answer: > 100 µM (inactive)

Question: What about the GI50 (U-251) of the same compound?
Answer: 33.1 µM (inactive)

Question: Which GI50 (DU-145) does the source give for `COc1cccc2c1C(=O)c1c(O)c3c(c(O)c1C2=O)C[C@@](O)(C(C)=O)CC3OC1CC(OC2CC(N)C(O)C(C)O2)C(O)C(C)O1` (stereo partly specified) here?
Answer: 49.1 µM (inactive)

Question: What about the GI50 (PC-3) of the same compound?
Answer: 48.6 µM (inactive)

Question: And the GI50 (SK-MEL-28)?
Answer: > 72.4 µM (inactive)

Question: What about the GI50 (SR) of the same compound?
Answer: > 24.4 µM (inactive)

Question: And the GI50 (786-0)?
Answer: 32.5 µM (inactive)

Question: What about the GI50 (LOX IMVI) of the same compound?
Answer: 18.4 µM (inactive)

Question: What about the GI50 (NCI-H460) of the same compound?
Answer: 14.6 µM (inactive)

Question: And the GI50 (MDA-MB-231)?
Answer: > 64.9 µM (inactive)

Question: And the GI50 (MOLT-4)?
Answer: 2.58 µM (inactive)

Question: What about the GI50 (ACHN) of the same compound?
Answer: 38.7 µM (inactive)

Question: What about the GI50 (UO-31) of the same compound?
Answer: 45.5 µM (inactive)

Question: And the GI50 (OVCAR-8)?
Answer: 57.9 µM (inactive)

Question: What about the GI50 (A498) of the same compound?
Answer: > 100 µM (inactive)

Question: And the GI50 (SK-MEL-2)?
Answer: 67.6 µM (inactive)

Question: What about the GI50 (SNB-19) of the same compound?
Answer: 21.1 µM (inactive)

Question: What about the GI50 (HCT-116) of the same compound?
Answer: 29.4 µM (inactive)

Question: What about the GI50 (HOP-92) of the same compound?
Answer: 31.3 µM (inactive)

Question: And the GI50 (COLO 205)?
Answer: 74.6 µM (inactive)

Question: And the GI50 (Hs-578T)?
Answer: > 48.4 µM (inactive)

Question: And the GI50 (SF-539)?
Answer: 25.1 µM (inactive)

Question: What about the GI50 (HCC 2998) of the same compound?
Answer: 54.6 µM (inactive)

Question: And the GI50 (UACC-62)?
Answer: 66.1 µM (inactive)

Question: And the GI50 (IGROV-1)?
Answer: 31.4 µM (inactive)

Question: What about the GI50 (M14) of the same compound?
Answer: 61.7 µM (inactive)

Question: What about the GI50 (EKVX) of the same compound?
Answer: > 100 µM (inactive)

Question: What about the GI50 (SF-268) of the same compound?
Answer: 31.3 µM (inactive)

Question: What about the GI50 (RPMI-8226) of the same compound?
Answer: 18.2 µM (inactive)

Question: And the GI50 (NCI/ADR-RES)?
Answer: > 100 µM (inactive)

Question: What about the GI50 (SF-295) of the same compound?
Answer: 49 µM (inactive)

Question: What about the GI50 (NCI-H226) of the same compound?
Answer: 51.1 µM (inactive)

Question: What about the GI50 (SN12C) of the same compound?
Answer: 36.9 µM (inactive)

Question: And the GI50 (HL-60)?
Answer: 10.6 µM (inactive)

Question: And the GI50 (OVCAR-3)?
Answer: 31 µM (inactive)

Question: And the GI50 (NCI-H23)?
Answer: 34.9 µM (inactive)

Question: And the GI50 (Malme-3M)?
Answer: 38.1 µM (inactive)

Question: What about the GI50 (HOP-62) of the same compound?
Answer: 36.8 µM (inactive)

Question: And the GI50 (SNB-75)?
Answer: 22.1 µM (inactive)

Question: And the GI50 (T47D)?
Answer: 37.9 µM (inactive)

Question: And the GI50 (SK-MEL-5)?
Answer: 35.7 µM (inactive)

Question: And the GI50 (MCF7)?
Answer: 7.66 µM (inactive)

Question: What about the GI50 (K562) of the same compound?
Answer: 19.6 µM (inactive)

Question: And the GI50 (OVCAR-5)?
Answer: > 61.2 µM (inactive)

Question: And the GI50 (CCRF-CEM)?
Answer: 10.5 µM (inactive)

Question: And the GI50 (MDA-N)?
Answer: 68.1 µM (inactive)

Question: What about the GI50 (KM12) of the same compound?
Answer: 35.8 µM (inactive)

Question: What about the GI50 (HT-29) of the same compound?
Answer: 39.5 µM (inactive)

Question: And the GI50 (RXF 393)?
Answer: 83 µM (inactive)

Question: And the GI50 (UACC-257)?
Answer: > 67.5 µM (inactive)

Question: What about the GI50 (A549) of the same compound?
Answer: 52.5 µM (inactive)

Question: What about the GI50 (SK-OV-3) of the same compound?
Answer: 51.9 µM (inactive)

Question: What about the GI50 (BT-549) of the same compound?
Answer: 32.5 µM (inactive)

Question: What about the GI50 (CAKI-1) of the same compound?
Answer: > 100 µM (inactive)

Question: And the GI50 (SW-620)?
Answer: 32.7 µM (inactive)

Question: What about the GI50 (NCI-H522) of the same compound?
Answer: 45.4 µM (inactive)

Question: And the GI50 (HCT-15)?
Answer: > 85.1 µM

Question: What about the GI50 (TK-10) of the same compound?
Answer: > 100 µM (inactive)

Question: What about the GI50 (OVCAR-4) of the same compound?
Answer: > 100 µM (inactive)

Question: What about the GI50 (MDA-MB-435) of the same compound?
Answer: 56.2 µM (inactive)

Question: What about the GI50 (U-251) of the same compound?
Answer: 23.9 µM (inactive)
